Where two headings read alike, the source gives them in different places.
How the values were obtained:
[1] = test system: HIV pNLlucΔBgl pseudotyped with M-tropic JRFL envelope; assay: HIV replication (luciferase expression) in activated PBMCs, M-tropic pseudotyped virus; type: cell-based; settings: 4 days in culture
Description: (§1) The PBMCs comprise a heterogeneous population of CD4 and CD8 cells with chemokines and cytokines present in the medium. […] Replication incompetent HIV pNLlucΔBgl pseudotyped with either M-tropic JRFL or T-tropic LAI envelope was used for the infection. Luciferase expression was used to assess the degree of HIV replication after 4 days in culture. Medication treated cultures were compared with samples receiving no drug. Cells were analyzed by flow cytometry for cell death after 4 days by staining with 7-AAD.

[2] = test system: HIV pNLlucΔBgl pseudotyped with T-tropic LAI envelope; assay: HIV replication (luciferase expression) in activated PBMCs, T-tropic pseudotyped virus; type: cell-based; settings: 4 days in culture
Description: as §1

activated PBMCs = settings: 4 days
Description: as §1

[3] = test system: HIV virus that expresses luciferase when replicated; assay: FIG. 19: HIV replication in cultured infected cells, luciferase by luminometer; type: cell-based
Description: Cultured cells infected with HIV were treated with 5-ASA or AZT in the amounts indicated. Luciferase expression, which indicates the amount of HIV replication, was quantified using a luminometer. The data shown represent nine separate studies.
(§2) Using a culture of cells that are infected with an HIV virus that expresses luciferase when replicated, but without any treatment as a control, Asacol at the two lowest doses (30 and 300 micrograms) is able to inhibit HIV replication by approximately 20%. At the 3000 microgram dose, the amount of suppression is higher, but this is due, in part, to cellular toxicity of the drug at this dose (approximately 30% cell death vs. 13-15% cell death for 30 and 300 microgram doses; AZT produces approximately 16% cell death at a dose of 5 μg). […] While the anti-inflammatory activity of Asacol is not as potent at suppressing HIV replication as is AZT, the activity is nonetheless statistically significant.

[4] = test system: cultured cells infected with HIV; assay: FIG. 19 study: cell death (cellular toxicity of the drug); type: cell-based
Excerpt: as §2

SMILES	% Change from untreated culture (luciferase expression), M-tropic HIV ([1]; 3 μM) [%]	% Change from untreated culture (luciferase expression), M-tropic HIV ([1]; 30 μM) [%]	% Change from untreated culture (luciferase expression), M-tropic HIV ([1]; 300 μM) [%]	% Change from untreated culture (luciferase expression), M-tropic HIV ([1]; 3000 μM, *P < .05)	% Change from untreated culture (luciferase expression), T-Tropic HIV ([2]; 2 μM) [%]	% Change from untreated culture (luciferase expression), T-Tropic HIV ([2]; 20 μM) [%]	% Change from untreated culture (luciferase expression), T-Tropic HIV ([2]; 200 μM) [%]	% death (activated PBMCs; 30 μM) [%]	% death (activated PBMCs; 300 μM) [%]	% death (activated PBMCs; 3000 μM) [%]	amount of suppression of HIV replication ([3]; 3000 microgram dose, compared with lower doses)	inhibition of HIV replication ([3]; two lowest doses (30 and 300 micrograms))	cell death ([4]; 30 and 300 microgram doses)	cell death ([4]; 3000 microgram dose)	% Change from untreated culture (luciferase expression), M-tropic HIV ([1]; 5 μM, *P < .05)	% Change from untreated culture (luciferase expression), T-Tropic HIV ([2]; 5 μM, *P < .05)	cell death ([4]; dose of 5 μg)
Nc1ccc(O)c(C(=O)O)c1 [5-ASA, 5-aminosalicylic acid]	46.2	50.3	48.9	67.6* %	3.2	22.4	26.0	7.3	9.4	13.3	higher	approximately 20%	13-15%	approximately 30%			
Cc1cn([C@H]2C[C@H](N=[N+]=[N-])[C@@H](CO)O2)c(=O)[nH]c1=O [AZT, zidovudine]															80.0* %	99.3* %	approximately 16%

Reference: patent publication US20030138399A1, “Anti-inflammatory therapy for inflammatory mediated infection” (priority 1999, published 2003)
